# Assay results as given in patent US8545876B1, “Modified drugs for use in liposomal nanoparticles” (The University of British Columbia, priority 2008, dated 2013).
# Like-named read-outs stand apart in the source and are kept apart here.
# How the values were obtained:
# [1] = test system: breast cancer cell line MDA435/LCC6; test: In vitro cytotoxicity, Alamar Blue assay; assay type: cell-based; conditions: Homo sapiens; MDA-MB-435/LCC6, 72-h drug exposure
# Procedure: (§1) Anticancer activity was evaluated against a panel of 3 human cancer cell lines, including the ovarian cancer cell line ES-2, the prostate cancer cell line PC3 and the breast cancer cell line MDA435/LCC6 (BC Cancer Research Centre, Vancouver, BC) (Fields and Lancaster, Am. Biotechnol. Lab., 11:48-50 (1993); Nakayama et al., J. Immunol. Methods, 204:205-208 (1997)). Cytotoxicity was determined using the Alamar Blue assay after a 72-h drug exposure period. […] The plates were returned to the incubator for 4 h; sample fluorescence was determined at λex=530 nm and λem=590 nm. Viability was calculated according to: Cell viability (%)=(Fplus drug−Fbackground)/(Fminus drug−Fbackground)*100, where Fplus drug is the fluorescence reading in the presence of drug, Fminus drug the cell control in the absence of drug and Fbackground the background fluorescence (media alone).
# [2] = test system: ovarian cancer cell line ES-2; test: In vitro cytotoxicity, Alamar Blue assay; assay type: cell-based; conditions: Homo sapiens; ES-2, 72-h drug exposure
# Procedure: as §1
# [3] = test system: prostate cancer cell line PC3; test: In vitro cytotoxicity, Alamar Blue assay; assay type: cell-based; conditions: Homo sapiens; PC-3, 72-h drug exposure
# Procedure: as §1
# [4] = Chemical (hydrolytic) stability in buffered aqueous solutions; assay type: physicochemical; conditions: for Prodrug levels (% remaining), pH 4: 24 hour incubation in pH 4 buffer, 37° C.
# Procedure: (§2) The chemical stability of the docetaxel derivatives was determined in aqueous solutions at different pH values and temperatures, and in biological media (mouse plasma). Aliquots of the docetaxel derivatives in acetonitrile were mixed with buffered citrate/HEPES (10 mM/10 mM) solutions at pH 4.0 and 7.5, or in mouse plasma in 1 mL glass HPLC sample vials sealed with Teflon-lined caps (final volume 0.25 ml, final docetaxel derivative concentration 50 µg/ml). Drug stability was determined 1, 4 and 24 hrs after incubation at 37° C. by UPLC-UV. At the indicated time points, a 3-fold excess of methanol/0.1% TFA was added to the sample. Citrate/HEPES buffered samples were analyzed by UHPLC as described above. For plasma samples, proteins precipitated by the addition of methanol/0.1% TFA pelleted by centrifugation at 14,000×g and supernatants were analyzed for the drug derivatives. Heparanized mouse plasma was diluted to 50% with 100 mM sodium-phosphate buffer to keep the pH constant throughout the experiment.
# (§3) To be suitable for formulation in LN, derivatives must be stable at pH 4 (the pH present inside the LN carrier). In addition, prodrug derivatives should readily form the active drug under physiological conditions (e.g., at pH 7.4 and/or in the presence of endogenous enzymes) once released from the LN. […] TD1-3 and TD7 were selected for loading into LN and testing of such LN for drug release in vitro.
# [5] = physchem
# [6] = Single dose tolerability (MTD) study; assay type: in vivo, SCID/Rag2-M mice; conditions: for MTD at 14 days: SCID/Rag2-M, mouse, in vivo, iv, single dose i.v.
# Procedure: Tolerability studies were aimed at establishing the maximum tolerated dose (MTD) and the dose range for use in efficacy studies (efficacy studies were based on a single i.v. injection). […] The studies were based on administration of a single dose and relied on 3 mice/group and a dose escalation strategy based on three dose levels for the derivative and Taxotere and five dose levels for the LN formulations (DSPC/Chol 55:45 mol % at a prodrug/lipid weight ratio of 0.2 mg/mg). All formulations were injected i.v. via the lateral tail vein in a volume of 200 μl/20 g mouse.
# Mice were monitored daily for signs of toxicity over a period of 14 days following drug administration. Tolerability was assessed by changes in body weight as well as behavioral parameters. […] Body weights of individual mice were measured every second day over the course of the study. If weight loss was not a good predictor of tolerability, the dose where no animals needed to be terminated due to toxicity was used.
# [7] = Chemical (hydrolytic) stability in buffered aqueous solutions; assay type: physicochemical; conditions: 24 hour incubation in pH 7.4 buffer, 37° C.
# [8] = mouse, in vivo, iv, 20 mg/kg
# Text: The pharmacokinetics (PK) of LN-encapsulated docetaxel derivatives were compared to the PK of Taxotere™, the commercial docetaxel formulation, and derivatives formulated in the same manner as Taxotere™. Taxotere™ and similarly formulated derivatives were formulated as described in the prescribing information for Taxotere™ (Sanofi-Aventis, U.S.) using ethanol/polysorbate 80/physiological saline solution to dissolve the drug. The docetaxel derivative was encapsulated in DSPC/chol, DPPC/Chol and DMPC/Chol LN (55:45 mol %) at a drug-to-lipid ratio of 0.2 wt/wt using the ammonium sulfate loading technique. The lipid components contained trace amounts (0.15 μCi/mg lipid) of the lipid marker [^3H]CHE, allowing monitoring of the elimination of both the prodrug and the LN carrier from circulation.
# The PK and in vivo release studies were based on 4 time points (1, 4, 8 and 16 hrs) and 4 mice per time point. […] The methanolic solutions were centrifuged for 30 min at 15,000×g at 4° C. to pellet the proteins and the supernatant was analyzed for docetaxel and drug derivatives by UHPLC. For LN formulations, 25-50 μl of plasma was added to scintillation fluid (PicoFluor 40, Perkin Elmer) and analyzed for lipid levels ([^3H]-CHE radioactivity) by scintillation counting.
# [9] = Stability in mouse plasma; assay type: in vitro ADME; conditions: 24 hour incubation in mouse plasma, 37° C.
# Procedure: as §2, §3
# [10] = In vitro release of docetaxel derivatives from LN in mouse plasma; assay type: in vitro ADME; conditions: 37° C., same prodrug-to-lipid ratio
# Procedure: In vitro release of docetaxel derivatives from LN was assessed in mouse plasma. Drug retention was determined by comparison of the initial prodrug-to-lipid ratio with the prodrug-to-lipid ratios found at different time points. […] LN formulations were mixed with mouse plasma at a final lipid concentration of 0.75 mg/ml, followed by incubation at 37° C. At various time points, aliquots were taken and run over Sephadex G-50 spin columns to remove the unentrapped prodrug (Pick, Arch. Biochem. Biophys., 212:186-194 (1981)). The derivative and lipid concentrations in the eluates were determined by UHPLC and liquid scintillation counting, respectively.
# [11] = Kinetic aqueous solubility of docetaxel derivatives in acetate buffer; conditions: pH 5, aqueous buffer, kinetic from dmso stock
# Procedure: An aliquot was diluted 10-fold with 10 mM acetate buffer (pH 5) and the pH was checked and re-adjusted as necessary to reach pH 5. Alternatively, 10 mg of each compound was weighed into a glass vial, and 2 mL of 10 mM acetate buffer (pH 5) was added to the compound, followed by sonication of the suspension for minutes. The precipitate was then removed using Microcon MY100 filters (MW cut-off 100,000 Da) and the filtrate analyzed by UPLC-UV for drug content. The measured solubilities are kinetic solubilities determined under non-equilibrium conditions.
# [12] = test system: A431 tumors; test: In vivo kinetics and anticancer activity of vincristine formulations; set-up: species or system SCID mice; conditions: 2 mg/kg i.v.
# Procedure: FIG. 9. In vivo kinetics and anticancer activity of free vincristine (VCR) (2 mg/kg) and vincristine (2 mg/kg) encapsulated in 100 nm egg sphingomyelin/cholesterol LN injected i.v. in SCID mice bearing A431 tumors. (8A) Concentration profile of free VCR (□) and LN formulated VCR (●) in blood plasma over time. […] (8B) Release of free VCR (●) from LN formulations (% retention) over time. […] (8C) Tumor concentration ([…]) of VCR over time after administration of free VCR (□) and LN formulated VCR (●). […] (8D) Anticancer activity of free VCR (1) and LN formulated VCR (●) relative to saline control (▪). […] Nano-liposomal formulations increase the amount of drug reaching sites of tumor growth and prolongs the duration of exposure to therapeutically active levels of drug, resulting in increased antitumor activity.
structure (smiles),measurement,setting,value
"CC(=O)O[C@@]12CO[C@@H]1C[C@H](O)[C@@]1(C)C(=O)[C@H](O)C3=C(C)[C@@H](OC(=O)[C@H](O)[C@@H](NC(=O)OC(C)(C)C)c4ccccc4)C[C@@](O)([C@@H](OC(=O)c4ccccc4)[C@H]21)C3(C)C [Docetaxel, reference compound]",IC50,[1],< 0.1 nM
same,IC50,[2],0.1 nM
same,IC50,[3],1 nM
"CC(=O)O[C@@]12CO[C@@H]1C[C@H](O)[C@@]1(C)C(=O)[C@H](O)C3=C(C)[C@@H](OC(=O)[C@H](OC(=O)CCCN4CCN(C)CC4)[C@@H](NC(=O)OC(C)(C)C)c4ccccc4)C[C@@](O)([C@@H](OC(=O)c4ccccc4)C12)C3(C)C (stereo partly drawn) [TD1, 2′-O-(N-methyl-piperazinylbutanoic acid ester) derivative of docetaxel]","Prodrug levels (% remaining), pH 4",[4],94%
same,half-life at 50 g/ml,"[4]; citrate/HEPES (10 mM/10 mM) buffered aqueous solution, pH 4, read-out: hydrolysis half-life (converted)",~49 days
same,pKa,[5],7.7
same,MTD at 14 days,"[6]; docetaxel equivalents, read-out: MTD",16 mg/kg
same,MTD at 14 days,"[6]; mg/kg prodrug, read-out: MTD expressed as prodrug",20 mg/kg
same,Clin. Observations,"[6]; docetaxel equivalent dose 20 mg/kg, 20 mg/kg",acute toxicity (lethality)
same,Clin. Observations,"[6]; docetaxel equivalent dose 20 mg/kg, listed as Derivative, 20 mg/kg",Acute toxicity
same,DRD (drug-related death),[6]; dose 16 mg/kg,0/3
same,DRD (drug-related death),[6]; dose 20 mg/kg,1/1
same,Clin. Observations,[6]; dose 24 mg/kg,Acute toxicity
same,DRD (drug-related death),[6]; dose 24 mg/kg,3/3
same,"Prodrug levels (% remaining), pH 7.4",[7],23%
same,IC50,[1],< 0.1 nM
same,IC50,[2],0.1 nM
same,IC50,[3],0.5 nM
same,time by which plasma concentrations were below detectable levels,[8]; Swiss Webster,≤ 2 h
same,plasma circulation half-lives,[8],minutes
same,"Prodrug levels (% remaining), Plasma",[9],12%
"CC(=O)O[C@@]12CO[C@@H]1C[C@H](O)[C@@]1(C)C(=O)[C@H](O)C3=C(C)[C@@H](OC(=O)[C@H](OC(=O)CCCN4CCCCC4)[C@@H](NC(=O)OC(C)(C)C)c4ccccc4)C[C@@](O)([C@@H](OC(=O)c4ccccc4)C12)C3(C)C (stereo partly drawn) [TD7, Piperidinyl butanoic acid ester]","Prodrug levels (% remaining), pH 4",[4],94%
same,"Prodrug levels (% remaining), pH 7.4",[7],13%
same,in vitro retention / release rate in DSPC/chol LN relative to TD1,[10],released at a rate mirroring that of TD1
same,solubility,[11],1900 µg/mL
same,"Prodrug levels (% remaining), Plasma",[9],8%
"CC[C@]1(O)C[C@H]2CN(CCc3c([nH]c4ccccc34)[C@@](C(=O)OC)(c3cc4c(cc3OC)N(C=O)[C@H]3[C@@](O)(C(=O)OC)[C@H](OC(C)=O)[C@]5(CC)C=CCN6CC[C@]43[C@@H]65)C2)C1 [free VCR, vincristine]",concentration profile in blood plasma over time,[12],rapidly removed from circulation
